In patent US6737383B1, “Herbicidal oxadiazolidines” (priority 1999, dated 2004):

What was measured:
[1] = tested on: bermuda-grass; test: Test D bermudagrass; assay type: in vivo, Cynodon dactylon; conditions: Preemergence, 0 to 100 scale
Summary of the method: (§1)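 Greenhouse pots, sandy loam, single species per pot. Preemergence tests: soil-surface application ≤1 day after planting. Compound formulated in non-phytotoxic solvent with surfactant. Visual rating 14–21 DAT, scale 0–100.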

[2] = tested on: common pursiane; test: Test D common purslane; assay type: in vivo, Portulaca oleracea; conditions: Preemergence, 0 to 100 scale
Summary of the method: as §1

[3] = tested on: common ragweed; test: Test D common ragweed; assay type: in vivo, Ambrosia elatior; conditions: Preemergence, 0 to 100 scale
Summary of the method: as §1

[4] = tested on: common groundsel; test: Test D common groundsel; assay type: in vivo, Senecio vulgaris; conditions: Preemergence, 0 to 100 scale
Summary of the method: as §1

[5] = tested on: dallisgrass; test: Test D dallisgrass; assay type: in vivo, Paspalum dilatatum; conditions: Preemergence, 0 to 100 scale
Summary of the method: as §1

[6] = tested on: guineagrass; test: Test D guineagrass; assay type: in vivo, Panicum maximum; conditions: Preemergence, 0 to 100 scale
Summary of the method: as §1

[7] = tested on: itchgrass; test: Test D itchgrass; assay type: in vivo, Rottboellia exaltata; conditions: Preemergence, 0 to 100 scale
Summary of the method: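 Scoring used a 0–100 visual injury scale, with 0 meaning no effect and 100 complete control, assessed 14–21 days after application alongside untreated pots. Preemergence treatments went onto sandy loam surfaces of separately potted seeds within a day of sowing.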

[8] = tested on: large crabgrass; test: Test D large crabgrass; assay type: in vivo, Digitaria sanguinalis; conditions: Preemergence, 0 to 100 scale
Summary of the method: as §1

[9] = tested on: pitted morningglory; test: Test D pitted morningglory; assay type: in vivo, Ipomoea lacunosa; conditions: Preemergence, 0 to 100 scale
Summary of the method: as §1

[10] = tested on: purple nutsedge; test: Test D purple nutsedge; assay type: in vivo, Cyperus rotundus; conditions: Preemergence, 0 to 100 scale
Summary of the method: as §1

[11] = tested on: Spanishneedles; test: Test D Spanishneedles; assay type: in vivo, Bidens bipinnata; conditions: Preemergence, 0 to 100 scale
Summary of the method: as §1

[12] = tested on: surinam grass; test: Test D surinam grass; assay type: in vivo, Brachiaria decumbens; conditions: Preemergence, 0 to 100 scale
Summary of the method: as §1

[13] = tested on: Green foxtail; test: Test D green foxtail; assay type: in vivo; conditions: Preemergence, 0 to 100 scale
Summary of the method: as §1

[14] = tested on: Green foxtail; test: Test D green foxtail; assay type: in vivo
Summary of the method: as §1

[15] = Rate 16 g/ha, 0 no injury, 100 complete control
[16] = Rate 32 g/ha, 0 no injury, 100 complete control
[17] = Rate 64 g/ha, 0 no injury, 100 complete control
[18] = Rate 125 g/ha, 0 no injury, 100 complete control
[19] = Rate 64 g/ha, Preemergence; 0 to 100 scale, 0 no injury, 100 complete control
[20] = Rate 125 g/ha, Preemergence; 0 to 100 scale, 0 no injury, 100 complete control
[21] = Rate 250 g/ha; Preemergence; 0 to 100 scale
[22] = Rate 500 g/ha, Preemergence; 0 to 100 scale

CC(C)N(C(=O)n1oc(=O)n(N(C)C)c1=O)c1ccc(F)cc1 [Compound 170]
40: Plant response rating, C. ragweed ([3]; Rate 250 g/ha) | Plant response rating, P. morninglory [9, 18] | Plant response rating, Spanishneedles ([11]; Rate 250 g/ha)
75: Surinam grass plant response rating [12, 18] | Plant response rating, Green foxtail ([14]; Preemergence; Rate 32 g/ha; 0 to 100 scale, 0 no injury, 100 complete control)
10: Plant response rating, C. purslane ([2]; Rate 500 g/ha)
65: Plant response rating, P. morninglory ([9]; Rate 250 g/ha) | Plant response rating, Purple nutsedge ([10]; Rate 250 g/ha) | Plant response rating, Purple nutsedge ([10]; Rate 500 g/ha) | Plant response rating, Green foxtail ([14]; Preemergence; Rate 16 g/ha; 0 to 100 scale, 0 no injury, 100 complete control) | Plant response rating, Green foxtail ([14]; Rate 16 g/ha; Preemergence; 0 to 100 scale, 0 no injury, 100 complete control)
45: Plant response rating, C. ragweed ([3]; Rate 500 g/ha) | Plant response rating, Com. groundsel [4, 18] | Plant response rating, Com. groundsel ([4]; Rate 250 g/ha) | Plant response rating, Itchgrass ([7]; Rate 250 g/ha)
0: Plant response rating, C. purslane [2, 15] | Plant response rating, C. purslane [2, 16] | Plant response rating, C. purslane [2, 17] | Plant response rating, C. purslane [2, 18] | Plant response rating, C. purslane ([2]; Rate 250 g/ha) | Plant response rating, C. ragweed [3, 15] | Plant response rating, C. ragweed [3, 16] | Plant response rating, C. ragweed [3, 17] | Plant response rating, C. ragweed [3, 18] | Plant response rating, Com. groundsel [4, 15] | Plant response rating, Com. groundsel [4, 16] | Plant response rating, Com. groundsel [4, 17] | Plant response rating, Dallisgrass [5, 15] | Plant response rating, Dallisgrass [5, 16] | Plant response rating, Guineagrass [6, 15] | Plant response rating, Itchgrass [7, 15] | Plant response rating, Itchgrass [7, 16] | Plant response rating, Itchgrass [7, 17] | Plant response rating, Purple nutsedge [10, 15] | Plant response rating, Purple nutsedge [10, 16] | Purple nutsedge plant response rating [10, 17] | Purple nutsedge plant response rating [10, 18] | Plant response rating, Spanishneedles [11, 15] | Plant response rating, Spanishneedles [11, 16] | Spanishneedles plant response rating [11, 17] | Spanishneedles plant response rating [11, 18] | Plant response rating, Surinam grass [12, 15] | Plant response rating, Surinam grass [12, 16]
20: Plant response rating, P. morninglory [9, 15] | Plant response rating, P. morninglory [9, 16] | Plant response rating, P. morninglory [9, 17]
90: Plant response rating, Bermudagrass [1, 16]
100: Plant response rating, Bermudagrass [1, 17] | Plant response rating, Bermudagrass [1, 18] | Plant response rating, Bermudagrass ([1]; Rate 250 g/ha) | Plant response rating, Bermudagrass ([1]; Rate 500 g/ha) | Plant response rating, Com. groundsel ([4]; Rate 500 g/ha) | Plant response rating, Dallisgrass ([5]; Rate 250 g/ha) | Plant response rating, Dallisgrass ([5]; Rate 500 g/ha) | Plant response rating, Guineagrass [6, 18] | Plant response rating, Guineagrass ([6]; Rate 250 g/ha) | Plant response rating, Guineagrass ([6]; Rate 500 g/ha) | Plant response rating, Large crabgrass [8, 17] | Plant response rating, Large crabgrass [8, 18] | Plant response rating, Large crabgrass ([8]; Rate 250 g/ha) | Plant response rating, Large crabgrass ([8]; Rate 500 g/ha) | Plant response rating, Surinam grass ([12]; Rate 250 g/ha) | Plant response rating, Surinam grass ([12]; Rate 500 g/ha) | Plant response rating, Green foxtail ([13]; Rate 250 g/ha) | Plant response rating, Green foxtail ([13]; Rate 500 g/ha) | Plant response rating, Green foxtail ([14]; Rate 32 g/ha; Preemergence; 0 to 100 scale, 0 no injury, 100 complete control) | Green foxtail plant response rating [14, 19] | Plant response rating, Green foxtail [14, 19] | Green foxtail plant response rating [14, 20] | Plant response rating, Green foxtail [14, 20] | Plant response rating, Green foxtail [14, 21] | Plant response rating, Green foxtail [14, 22]
98: Plant response rating, Guineagrass [6, 17]
85: Plant response rating, Dallisgrass [5, 17] | Plant response rating, Dallisgrass [5, 18] | Plant response rating, Guineagrass [6, 16] | Plant response rating, Large crabgrass [8, 16] | Plant response rating, P. morninglory ([9]; Rate 500 g/ha) | Plant response rating, Spanishneedles ([11]; Rate 500 g/ha)
30: Plant response rating, Itchgrass [7, 18] | Plant response rating, Large crabgrass [8, 15] | Surinam grass plant response rating [12, 17]
50: Plant response rating, Itchgrass ([7]; Rate 500 g/ha)
80: Plant response rating, Bermudagrass [1, 15]

CC(C)N(C(=O)n1oc(=O)n(C)c1=O)c1ccc(F)cc1 [Compound 138]
100: Plant response rating, Bermudagrass [1, 17] | Plant response rating, Bermudagrass [1, 18] | Plant response rating, Bermudagrass ([1]; Rate 250 g/ha) | Plant response rating, Bermudagrass ([1]; Rate 500 g/ha) | Plant response rating, C. purslane ([2]; Rate 250 g/ha) | Plant response rating, C. purslane ([2]; Rate 500 g/ha) | Plant response rating, C. ragweed ([3]; Rate 500 g/ha) | Plant response rating, Com. groundsel [4, 18] | Plant response rating, Com. groundsel ([4]; Rate 250 g/ha) | Plant response rating, Com. groundsel ([4]; Rate 500 g/ha) | Plant response rating, Dallisgrass [5, 17] | Plant response rating, Dallisgrass [5, 18] | Plant response rating, Dallisgrass ([5]; Rate 250 g/ha) | Plant response rating, Dallisgrass ([5]; Rate 500 g/ha) | Plant response rating, Guineagrass [6, 17] | Plant response rating, Guineagrass [6, 18] | Plant response rating, Guineagrass ([6]; Rate 250 g/ha) | Plant response rating, Guineagrass ([6]; Rate 500 g/ha) | Plant response rating, Itchgrass ([7]; Rate 250 g/ha) | Plant response rating, Itchgrass ([7]; Rate 500 g/ha) | Plant response rating, Large crabgrass [8, 17] | Plant response rating, Large crabgrass [8, 18] | Plant response rating, Large crabgrass ([8]; Rate 250 g/ha) | Plant response rating, Large crabgrass ([8]; Rate 500 g/ha) | Plant response rating, Surinam grass ([12]; Rate 500 g/ha) | Plant response rating, Green foxtail ([13]; Rate 250 g/ha) | Plant response rating, Green foxtail ([13]; Rate 500 g/ha) | Green foxtail plant response rating [14, 19] | Plant response rating, Green foxtail [14, 19] | Green foxtail plant response rating [14, 20] | Plant response rating, Green foxtail [14, 20] | Plant response rating, Green foxtail [14, 21] | Plant response rating, Green foxtail [14, 22]
0: Plant response rating, C. purslane [2, 17]
98: Plant response rating, Surinam grass ([12]; Rate 250 g/ha)
85: Surinam grass plant response rating [12, 18]
75: Plant response rating, Purple nutsedge ([10]; Rate 250 g/ha) | Plant response rating, Spanishneedles ([11]; Rate 500 g/ha)
60: Plant response rating, C. ragweed ([3]; Rate 250 g/ha)
30: Plant response rating, C. purslane [2, 18] | Plant response rating, C. ragweed [3, 18] | Plant response rating, Itchgrass [7, 17] | Purple nutsedge plant response rating [10, 17] | Plant response rating, Spanishneedles ([11]; Rate 250 g/ha)
65: Plant response rating, P. morninglory [9, 17] | Plant response rating, P. morninglory [9, 18] | Plant response rating, P. morninglory ([9]; Rate 250 g/ha) | Plant response rating, P. morninglory ([9]; Rate 500 g/ha) | Purple nutsedge plant response rating [10, 18]
40: Plant response rating, Com. groundsel [4, 17] | Surinam grass plant response rating [12, 17]
80: Plant response rating, Itchgrass [7, 18] | Plant response rating, Purple nutsedge ([10]; Rate 500 g/ha)
10: Plant response rating, C. ragweed [3, 17] | Spanishneedles plant response rating [11, 17] | Spanishneedles plant response rating [11, 18]
